Measured values from the supplement of paper PMC10307832.

Key:
Test in all cases: relative viability (nuclei count vs DMSO), 5 days (fraction); higher = more cells survive
IPA-3 + Trametinib = compound: C1=CC=C2C(=C1)C=CC(=C2SSC3=C(C=CC4=CC=CC=C43)O)O [IPA-3] + CC(=O)Nc1cccc(-n2c(=O)n(C3CC3)c(=O)c3c(Nc4ccc(I)cc4F)n(C)c(=O)c(C)c32)c1 [Trametinib] (partner 0.02 µM)
How it was run: (§1)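 One day after seeding in 1536-well plates, lung cancer cell lines were dosed by pin tool. Dosing was either single-drug or a fixed anchor-drug dose plus five library-drug doses (not always all listed) in √10 steps. After 5 days, nuclei were stained in one fix-and-stain step and counted on 4× images, and relative viability is the nuclei count of treated wells over that of vehicle wells, given as the median of duplicate plates.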

IPA-3 + Pemetrexed = compound: C1=CC=C2C(=C1)C=CC(=C2SSC3=C(C=CC4=CC=CC=C43)O)O [IPA-3] + Nc1nc2[nH]cc(CCc3ccc(C(=O)N[C@@H](CCC(=O)O)C(=O)O)cc3)c2c(=O)[nH]1 [Pemetrexed] (partner 0.2 µM)
How it was run: as §1

Doramapimod + Luminespib = compound: Cc1ccc(-n2nc(C(C)(C)C)cc2NC(=O)Nc2ccc(OCCN3CCOCC3)c3ccccc23)cc1 [Doramapimod] + CCNC(=O)c1noc(-c2cc(C(C)C)c(O)cc2O)c1-c1ccc(CN2CCOCC2)cc1 [Luminespib] (partner 0.01 µM)
How it was run: as §1

Doramapimod + AZD7762 = compound: Cc1ccc(-n2nc(C(C)(C)C)cc2NC(=O)Nc2ccc(OCCN3CCOCC3)c3ccccc23)cc1 [Doramapimod] + NC(=O)Nc1cc(-c2cccc(F)c2)sc1C(=O)N[C@H]1CCCNC1 [AZD7762] (partner 0.2 µM)
How it was run: as §1

Cell Line | relative viability (IPA-3 + Trametinib; first compound 0.2 µM) | relative viability (IPA-3 + Trametinib; first compound 0.6325 µM) | relative viability (IPA-3 + Trametinib; first compound 2 µM) | relative viability (IPA-3 + Trametinib; first compound 6.325 µM) | relative viability (IPA-3 + Trametinib; first compound 20 µM) | relative viability (IPA-3 + Pemetrexed; first compound 0.2 µM) | relative viability (IPA-3 + Pemetrexed; first compound 0.6325 µM) | relative viability (IPA-3 + Pemetrexed; first compound 2 µM) | relative viability (IPA-3 + Pemetrexed; first compound 6.325 µM) | relative viability (IPA-3 + Pemetrexed; first compound 20 µM) | relative viability (Doramapimod + Luminespib; first compound 0.02 µM) | relative viability (Doramapimod + Luminespib; first compound 0.06325 µM) | relative viability (Doramapimod + Luminespib; first compound 0.2 µM) | relative viability (Doramapimod + Luminespib; first compound 0.6325 µM) | relative viability (Doramapimod + Luminespib; first compound 2 µM) | relative viability (Doramapimod + AZD7762; first compound 0.02 µM) | relative viability (Doramapimod + AZD7762; first compound 0.06325 µM) | relative viability (Doramapimod + AZD7762; first compound 0.2 µM) | relative viability (Doramapimod + AZD7762; first compound 0.6325 µM) | relative viability (Doramapimod + AZD7762; first compound 2 µM)
NCI-H2085 | 0.625 | 0.602 | 0.637 | 0.577 | 0.714 | 0.89 | 0.828 | 0.864 | 0.821 | 0.993 | 0.411 | 0.601 | 0.409 | 0.46 | 0.463 | 1.07 | 0.978 | 1.01 | 1.08 | 1.02
NCI-H460 | 0.133 | 0.145 | 0.141 | 0.129 | 0.104 | 0.0552 | 0.0621 | 0.0636 | 0.0626 | 0.0707 | 0.032 | 0.0205 | 0.0311 | 0.0341 | 0.0277 | 0.658 | 0.702 | 0.726 | 0.805 | 0.531
RERF-LC-KJ | 1.01 | 0.877 | 0.84 | 0.872 | 0.891 | 0.487 | 0.46 | 0.482 | 0.489 | 0.566 | 1.35 | 1.16 | 1.24 | 1.36 | 1.2 | 0.897 | 1.15 | 0.961 | 0.703 | 0.889
LCLC-103H | 0.693 | 0.686 | 0.718 | 0.687 | 0.675 | 0.474 | 0.463 | 0.461 | 0.504 | 0.476 | 0.927 | 0.99 | 0.884 | 1.08 | 0.925 | 0.908 | 0.78 | 0.795 | 0.978 | 0.762
